Measurements taken from patent publication US8318731B2, “Pyrrolopyrimidines” (Janssen Pharmaceutica NV, priority 2007, dated 2012).

How the values were obtained:
PLK4 (h) = molecular target: T1, PLK4 (h) (Homo sapiens, UniProt O00444); experiment: PLK-4 human kinase scintillation proximity assay (SPA); type: biochemical; details: 1 μM ATP, 60 minutes at r.t., read-out: PLK4 pIC50 (converted)
T1 sequence (O00444 1-970): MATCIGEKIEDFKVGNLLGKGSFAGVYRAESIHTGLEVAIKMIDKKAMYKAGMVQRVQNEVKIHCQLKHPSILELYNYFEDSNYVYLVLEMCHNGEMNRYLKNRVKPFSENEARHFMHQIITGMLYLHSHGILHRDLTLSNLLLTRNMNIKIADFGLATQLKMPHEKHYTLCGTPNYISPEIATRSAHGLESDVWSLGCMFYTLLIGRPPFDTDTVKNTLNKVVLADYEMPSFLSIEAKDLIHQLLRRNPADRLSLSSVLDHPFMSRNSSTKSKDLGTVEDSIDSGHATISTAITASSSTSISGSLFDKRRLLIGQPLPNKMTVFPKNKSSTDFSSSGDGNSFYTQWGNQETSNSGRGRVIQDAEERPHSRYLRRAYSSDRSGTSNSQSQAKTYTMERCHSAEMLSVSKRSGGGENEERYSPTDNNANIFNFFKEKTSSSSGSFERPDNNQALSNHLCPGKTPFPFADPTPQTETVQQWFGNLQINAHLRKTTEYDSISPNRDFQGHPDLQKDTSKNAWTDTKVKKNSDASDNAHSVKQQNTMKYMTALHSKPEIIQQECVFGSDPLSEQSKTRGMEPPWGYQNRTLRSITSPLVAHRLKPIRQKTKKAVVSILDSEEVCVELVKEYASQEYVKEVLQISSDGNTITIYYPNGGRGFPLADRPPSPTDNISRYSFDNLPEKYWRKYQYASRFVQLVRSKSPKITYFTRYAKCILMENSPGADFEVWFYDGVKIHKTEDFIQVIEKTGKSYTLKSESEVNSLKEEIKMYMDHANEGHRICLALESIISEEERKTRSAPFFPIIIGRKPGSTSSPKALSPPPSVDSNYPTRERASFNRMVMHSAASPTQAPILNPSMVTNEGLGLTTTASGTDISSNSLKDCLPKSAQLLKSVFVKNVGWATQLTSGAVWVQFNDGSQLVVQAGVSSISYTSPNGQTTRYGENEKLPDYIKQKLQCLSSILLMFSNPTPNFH
Procedure: The in vitro inhibition of a panel of kinases was assessed using either the scintillation proximity assay (SPA) as described by Cook, N. D. et al., Advances in Experimental Medicine and Biology (1991), 36; p. 525-528.
In the SPA technology the activity of the kinase of interest is measured using an appropriate biotinylated substrate that is incubated with the aforementioned kinase protein in the presence of (^33P) radiolabeled ATP. (^33P) Phosphorylation of the substrate is subsequently measured through binding of the phosphorylated substrate to streptavidine coated beads that are based on the scintillant poly(vinyl toluene) (PVT-Beads). The scintillation intensity is detected by imaging on Leadseeker.
All kinases are pre-diluted to a 10× working concentration prior to addition into the assay. The composition of the dilution buffer for each kinase is detailed below.
In a final reaction volume of 30 μl, PLK4 (h) (19 μg/ml) is incubated with 50 mM Hepes pH 8.0, 10 mM MgCl2, 50 mM NaCl, 1 mM NaF, 1 mM DTT, 10 μM of peptide Biotin-RPRGQRDSSYYWE-OH, 1 μM ATP and 2 nM [γ-^33P-ATP] (6.0 μCi/ml). After incubation of 60 minutes at r.t., the reaction is stopped by addition of 40 μL of stop solution containing 8.7 mM EDTA, BSA 0.17%, 0.17% Triton X-100, 1.7 mg/ml SPA beads (GE-healthcare). The plate is centrifuged and read for Scintillation imaging on Leadseeker.

HCT-116 = experiment: Cellular proliferation assay (Alamar blue), HCT-116; type: cell-based; details: Homo sapiens; HCT-116 cells; 10% FCS; 72 h with compound; Alamar blue 4 h; read-out: pIC50 HCT-116 (converted)
Procedure: (§1) Cellular proliferation of these compounds was tested on a panel of different cell lines in the presence of 10% FCS serum (37° C. and 5% (v/v) CO2). In a first step these cells were seeded and incubated for 24 hours in the absence of compound. In the second step the cells were incubated for 72 hours with the compounds to be tested for 72 hours. The viable cell number was finally assessed in a standard Alamar blue cell viability assay.
(§2) The viable cell number was assessed by incubation for either 4 h (HCT-116, H1299) 6 h (U87-MG) or 24 h (A2780, PC3, MDA-MB-231) with Alamar blue (Resazurin 9 μg/ml, K-Ferrocyanide 90 μM, K-Ferricyanide 90 μM) and the converted fluorescent product was quantified on a fluorescent plate readed (544 nm/590 nm). Effect of the compounds is calculated as of on control cells.

H1299 = experiment: Cellular proliferation assay (Alamar blue), H1299; type: cell-based; details: Homo sapiens, NCI-H1299, H1299 cells; 10% FCS; 72 h with compound; Alamar blue 4 h; read-out: pIC50 H1299 (converted)
Procedure: as §1, §2

U87-MG = experiment: Cellular proliferation assay (Alamar blue), U87-MG; type: cell-based; details: Homo sapiens, U-87 MG; U87-MG cells; 10% FCS; 72 h with compound; Alamar blue 6 h; read-out: pIC50 U87MG (converted)
Procedure: as §1, §2

A2780 = experiment: Cellular proliferation assay (Alamar blue), A2780; type: cell-based; details: Homo sapiens, A2780, A2780 cells; 10% FCS; 72 h with compound; Alamar blue 24 h; read-out: pIC50 A2780 (converted)
Procedure: as §1, §2

PC3 = experiment: Cellular proliferation assay (Alamar blue), PC3; type: cell-based; details: Homo sapiens, PC-3, PC-3 cells; 10% FCS; 72 h with compound; Alamar blue 24 h; read-out: pIC50 PC-3 (converted)
Procedure: as §1, §2

MDA-MB-231 = experiment: Cellular proliferation assay (Alamar blue), MDA-MB-231; type: cell-based; details: Homo sapiens, MDA-MB-231, MDA-MB-231 cells; 10% FCS; 72 h with compound; Alamar blue 24 h; read-out: pIC50 MDA/MB231 (converted)
Procedure: as §1, §2

IC50 (PLK4 (h)) [µM] | IC50 (HCT-116) [µM] | IC50 (H1299) [µM] | IC50 (U87-MG) [µM] | IC50 (A2780) [µM] | IC50 (PC3) [µM] | IC50 (MDA-MB-231) [µM] | SMILES
> 10 | > 10 | > 10 | > 10 | > 10 | > 10 | > 10 | COc1cc2cc(c1OC)OCCCCC(=O)N1CCN(CC1)Cc1c[nH]c3ncnc(c13)N2 [Compound 111]
0.0398 | 5.01 | > 10 | 1.58 | > 10 | 7.94 | > 10 | CN1CCCN(C)C(=O)COc2cc(ccc2NC(=O)NC2CCCC2)Nc2ncnc3[nH]cc(c23)C1 [Compound 66]
> 10 | > 10 | > 10 | > 10 | > 10 | > 10 | > 10 | COCCN1CC(=O)N(C)CCCc2c[nH]c3ncnc(c23)Nc2cc(c(OC)c(OC)c2)C1 [Compound 124]
0.0794 | 0.126 | 0.398 | 3.16 | 0.0398 | 6.31 | 5.01 | CN1CCCN(C)C(=O)COc2cc(ccc2OCCOc2ccc(Cl)cc2)Nc2ncnc3[nH]cc(c23)C1 [Compound 134]
0.0501 | > 10 | > 10 | > 10 | 5.01 | > 10 | > 10 | CN1CCCN(C)C(=O)COc2cc(ccc2NC(=O)NCC2CC2)Nc2ncnc3[nH]cc(c23)C1 [Compound 127]
0.251 | 2.51 | 5.01 | 1.58 | 1 | 2.51 | 3.16 | CN1CCCN(C)C(=O)COc2cc(ccc2OCCN2CCCCC2)Nc2ncnc3[nH]cc(c23)C1 [Compound 136]
0.0501 | 0.631 | > 10 | 0.794 | 3.98 | > 10 | > 10 | CN1CCCN(C)C(=O)COc2cc(ccc2Cl)Nc2ncnc3[nH]cc(c23)C1 [Compound 14]
> 10 | > 10 | > 10 | > 10 | > 10 | > 10 | > 10 | COc1ccc2cc1OCC(=O)N1CCCC(CN(C)CCCc3c[nH]c4ncnc(c34)N2)C1 (stereo not shown) [Compound 29]
> 10 | > 10 | > 10 | > 10 | > 10 | > 10 | > 3.16 | CN1CCN(C)C(=O)CCCCOc2cc(ccc2N2CCOCC2)Nc2ncnc3[nH]cc(c23)C1 [Compound 48]
0.0501 | 0.0631 | 0.1 | 2 | 0.0501 | 7.94 | 3.16 | CC(C)OCCOc1ccc2cc1OCC(=O)N(C)CCCN(C)Cc1c[nH]c3ncnc(c13)N2 [Compound 131]
0.0251 | 1 | 5.01 | > 10 | 0.631 | > 10 | > 10 | COCCOc1ccc2cc1OCC(=O)N(C)CCCNCc1c[nH]c3ncnc(c13)N2 [Compound 138]
0.158 | > 10 | > 10 | > 10 | > 10 | > 10 | > 10 | COc1ccc2cc1OCC(=O)N(C)CCCN(CC1CC1)Cc1c[nH]c3ncnc(c13)N2 [Compound 59]
6.31 | > 10 | > 10 | > 10 | > 10 | > 10 | > 10 | O=C1CCCCOc2cc(ccc2N2CCOCC2)Nc2ncnc3[nH]cc(c23)CN2CCN1CC2 [Compound 121]
> 10 | > 10 | > 10 | > 10 | > 10 | > 10 | > 10 | CN1CCN(C)C(=O)CN(C)C(=O)CCc2cccc(c2)Nc2ncnc3[nH]cc(c23)C1 [Compound 8]
0.251 | > 10 | > 10 | > 10 | > 10 | > 10 | > 10 | COc1ccc2cc1OCCCC(=O)N(C)CCCN(C)Cc1c[nH]c3ncnc(c13)N2 [Compound 17]
0.0631 | 3.16 | 7.94 | 3.16 | 2.51 | 3.16 | 5.01 | CCN(CCOC)CCOc1ccc2cc1OCC(=O)N(C)CCCN(C)Cc1c[nH]c3ncnc(c13)N2 [Compound 77]
5.01 | > 10 | > 10 | > 10 | > 10 | > 10 | > 10 | COc1ccc2cc1OCC(=O)NCN(C)CCCc1c[nH]c3ncnc(c13)N2 [Compound 33]
6.31 | > 10 | > 10 | > 10 | > 10 | > 10 | > 10 | COc1cc2cc(c1OC)CCC(=O)N(C)CCN(C)Cc1c[nH]c3ncnc(c13)N2 [Compound 47]
0.398 | > 10 | > 10 | > 10 | > 10 | > 10 | > 10 | COc1ccc2cc1OCCCCCC(=O)N(C)CCCN(C)Cc1c[nH]c3ncnc(c13)N2 [Compound 18]
0.0398 | 0.398 | 1.26 | 2.51 | 0.2 | 3.16 | 3.98 | COCCN(CCOc1ccc2cc1OCC(=O)N(C)CCCN(C)Cc1c[nH]c3ncnc(c13)N2)Cc1ccccc1 [Compound 141]
0.0794 | 7.94 | > 10 | 6.31 | 5.01 | > 10 | > 10 | COc1ccc2cc1OCC(=O)N(C(C)C)CCCN(C)Cc1c[nH]c3ncnc(c13)N2 [Compound 12]

SMILES | IC50 (PLK4 (h)) [µM] | IC50 (HCT-116) [µM] | IC50 (H1299) [µM] | IC50 (U87-MG) [µM] | IC50 (A2780) [µM] | IC50 (PC3) [µM] | IC50 (MDA-MB-231) [µM]
COc1ccc2cc1OCC(=O)N(C)CCN(C)CCCc1c[nH]c3ncnc(c13)N2 [Compound 60] | 1 | > 10 | > 10 | > 10 | > 10 | > 10 | > 10
